In one experiment the test system is BCE cells. The experiment can be described thus: Proliferation and viability of cultured cells, 72 hr, cell count. It is filed as cell-based, bovine. The settings on record: for IC50: Bos taurus, 72 h, BCE. How it is done:
FIG. 18. Inhibition of proliferation and reduction in viability of BCE cells by GSAO. 15,000 (part A and B) or 50,000 (part C and D) BCE cells per well were seeded into gelatinised 24-well culture plates and allowed to attach for 24 hr (part A, B and D) or 72 hr (part C). The media was then replaced with DMEM containing 5% BCS and 0 to 1 mM GSAO or GSM and either 1 ng per mL FGF-2 (part A) or 10 ng per mL VEGF (part B). In part D, the media was replaced with DMEM containing 5% BCS and 1 ng per mL FGF-2 and either 10 μM GSAO or GSM. In part C, the media was replaced with DMEM containing 5% BCS and 0 to 1 mM GSAO or GSAA. Cells were cultured for 72 hr in parts A, B and C or for discrete times up to 48 hr in part D and then dispersed and counted. The dotted line in parts A, B and C indicate the cell number in control wells containing DMEM and 5% BCS which represented no to limited proliferation. The dotted line in part D represents no change in cell number over the 48 hr. The data points and errors represent the mean and range of duplicate wells.
(§1) BCE (Folkman et al. 1979), BAE, BxPC-3 (ATCC, Bethesda, Md.), HT1080 (Jiang et al., 1999), 3T3 (ATCC, Bethesda, Md.) and BVSM (Hogg et al., 1997) cells were harvested and cultured as indicated. Cells (0.5 mL of 30,000 or 100,000 cells per mL) were seeded into gelatinized 24-well culture plates (Corning Costar, Corning, N.Y.) in Dulbecco's Modified Eagle's Medium (DMEM, JHR Bioscience, Lenexa, Kans.) containing 10% fetal calf serum (FCS, Intergen Comp., Purchase, N.Y.) and 1% Glutamine Pen-Strep (GPS, Irvine Scientific, Santa Ana, Va.) and allowed to attach for 24 hr in 10% CO2 at 37° C. The media was then replaced with DMEM and 1% GPS containing 0 to 1 mM GSAO or GSAA and either 5% bovine calf serum (BCS, HyClone, Logan, Utah) and 1 ng per mL FGF-2 (Genzyme, Cambridge, Mass.) or 5% BCS and 10 ng per mL VEGF (Genzyme, Cambridge, Mass.) for BCE cells, 5% or 10% BCS for BAE cells, 5% BCS for BVSM cells, and 5% FCS for BxPC-3, HT1080 and 3T3 cells. Cells were cultured for 0 to 72 hr in 10% CO2 at 37° C. then dispersed in trypsin/EDTA (GibcoBRL, Granc Island, N.Y.), resuspended in Coulter balanced electrolyte solution and counted with a Z1 Coulter counter (Coulter Corp., Miami, Fla.). In all experiments there were two control wells containing DMEM with 1% GPS and either 5% BCS for BCE cells, 2% BCS for BAE and BVSM cells, or 2% FCS for BxPC-3, HT1080 and 3T3 cells. These wells represented no to limited proliferation.

Another experiment concerns BAE cells. The description is as above. Type of experiment: cell-based, bovine. The settings on record: for IC50: Bos taurus, 72 h, BAE, 72 hr. How it is done:
as §1

Another experiment concerns HT1080 cells. The description is as above. It is filed as cell-based, human. How it is done:
FIG. 19. Effect of GSAO on Proliferation of non-endothelial cells. 15,000 BxPC-3 (part A), HT1080 (part B), 3T3 (part C) or BVSM (part D) cells per well were seeded into gelatinised 24-well culture plates and allowed to attach for 24 hr. The media was then replaced with DMEM containing 0 to 1 mM GSAO or GSAA and either 5% BCS (part D) or 5% FCS (parts A, B and C). Cells were cultured for 72 hr and then dispersed and counted. The dotted lines indicate the cell number in control wells containing DMEM and 2% BCS (part D) or 2% FCS (parts A, B and C) which represented no to limited proliferation. The data points and errors represent the mean and range of duplicate wells.
as §1

In the next experiment the test system is Human bone marrow cells. As to the kind of experiment: 12 day bone marrow culture assay, granulocyte/macrophage colonies. Type of experiment: cell-based. Particulars: 12 days. How it is done: FIG. 20. Effect of GSAO on Proliferation of bone marrow progenitor cells. Human bone marrow cells were incubated in semi-solid agar containing 20% BCS, […] and 0 to 100 μM GSAA or GSAO for 12 days. Granulocyte/macrophage colonies of 40 or more cells were counted under an inverted microscope. The data points and errors represent the mean and SE of quadruplicate cultures.
GSAO reduced the number of granulocyte/macrophage colonies in a 12 day human bone marrow culture assay with an IC50 of ˜30 μM (FIG. 20). […] Human bone marrow cells (˜5×10^5 cells per mL) were added to semi-solid agar in DMEM containing 20% BCS, 5 ng per mL IL-3 and 0 to 100 μM GSM or GSAO. The cultures were incubated for 12 days at 37° C. and 5% CO2 and clusters of 40 or more cells were counted under an inverted microscope according to Metcalf (1977).

Another experiment concerns HDMVE cells. The experiment can be described thus: Endothelial cell tube formation in Matrigel. Type of experiment: cell-based, human. Particulars: 18 hours; for effect on tube formation: 0.1, 1 or 100 μM. How it is done: FIG. 21. GSAO perturbs endothelial cell tube formation in Matrigel. Matrigel (100 μl) was added to wells of 96 well plates and allowed to gel for 60 minutes at 37° C. HDMVE cells (10,000 cells per well) in complete media containing 0.1, 1 or 100 μM GSAA or GSAO were seeded onto the Matrigel and the plates were incubated in 5% CO2, 37° C. The phase contrast micrographs were taken after 18 hours incubation.
Endothelial cells arrange into tube-like structures when seeded onto three-dimensional matrices such as the extracellular matrix preparation, Matrigel, or collagen. The tubes can be considered to represent immature blood vessels. Matrigel (100 μl, Becton Dickinson, Bedford, Mass.) was added to wells of 96 well plates (Gibco BRL, Gaithersburg, Md.) and allowed to gel for 60 minutes at 37° C. Human dermal microvascular endothelial (HDMVE) cells were harvested and cultured as described by Stathakis et al. (1997). HDMVE cells (8,000 cells per well) in 150 μl of M199 (Gibco BRL, Gaithersburg, Md.) media containing 30% pooled human serum, 50 μg per mL Heparin (Sigma, St. Louis, Mo.), 100 μg per mL Endothelial Cell Growth Supplement (Gibco BRL, Gaithersburg, Md.) and 0.1, 1 or 100 μM GSM or GSAO were seeded onto the Matrigel and the plates were incubated for 18 hours in 5% CO2, 37° C. Phase contrast micrographs of the wells were collected.

The structures appear in SMILES notation. Entries after “also recorded” stand apart in the source; their conditions may differ. Where two headings read alike, the source gives them in different places.

With `NC(CCC(=O)NC(CSCC(=O)Nc1ccc([As]=O)cc1)C(=O)NCC(=O)O)C(=O)O` (stereo not drawn) [GSAO, 4-(N-(S-glutathionylacetyl)amino)-phenylarsenoxide], the “decrease in viability of BCE cells over time” value in the experiment on BCE cells (10 μM GSAO, after 8 hours) was “no decrease in viability”. Besides, the IC50 is ~0.1 µM in the experiment with BCE cells (5% BCS + 1 ng/mL FGF-2, 72 hr, read-out: Proliferation IC50); ~10 µM in the experiment with BCE cells (5% BCS + 1 ng/mL FGF-2, >90% confluent, 72 hr, read-out: Viability IC50); ~0.05 µM in the experiment with BCE cells (5% BCS + 10 ng/mL VEGF, 72 hr, read-out: Proliferation IC50); ~3 µM in the experiment with BCE cells (5% BCS + 10 ng/mL VEGF, >90% confluent, 72 hr, read-out: Viability IC50); ~0.02 µM with BAE cells (5% BCS, read-out: Proliferation IC50); ~8 µM in the experiment with BAE cells (5% BCS, >90% confluent, read-out: Viability IC50). Further, the IC50 with BAE cells (10% BCS, read-out: Proliferation IC50) is ~0.2 µM; in the experiment on BAE cells (10% BCS, >90% confluent, read-out: Viability IC50) it was ~10 µM; in the experiment with HT1080 cells (Homo sapiens, HT-1080, HT1080, 5% FCS, 72 hr) it was ~40 µM; in the experiment on Human bone marrow cells (Homo sapiens, Bone marrow cell, 288 h, semi-solid agar, 20% BCS, IL-3, read-out: IC50 for reduction of the number of granulocyte/macrophage colonies) it was ~30 µM. Moreover, in the experiment on HT1080 cells (HT1080, 5% FCS, 72 hr), the “Proliferation IC50” value is recorded as “did not affect the proliferation; also recorded: No effect”. In addition, in the experiment on HDMVE cells, the “effect on tube formation” value was “perturbed tube formation”. In addition, the “concentration at which effects on tube formation were apparent” value in the experiment with HDMVE cells was determined as 0.1 µM. The “concentration at which effects on tube formation were marked” value in the experiment on HDMVE cells was 100 µM.

As to `N[C@@H](CCC(=O)N[C@@H](CSCC(=O)Nc1ccc([As](=O)(O)O)cc1)C(=O)NCC(=O)O)C(=O)O` [GSAA, 4-(N-(S-glutathionylacetyl)amino)phenylarsonic acid, reference compound], the “effect on viability of BCE cells” value in the experiment with BCE cells (0 to 1 mM) is listed as “no significant effect”. Moreover, the “effect on proliferation of BCE cells” value in the experiment on BCE cells (highest concentration used, 1 mM) is given as “only a marginal effect”. In the experiment with BAE cells (not shown), the “effect on proliferation or viability of BAE cells” value was “did not effect either proliferation or viability”. In the experiment on HT1080 cells (HT1080, up to a concentration of 1 mM), the “effect on proliferation or viability” value is listed as “no significant effect”. In addition, in the experiment with Human bone marrow cells (up to a concentration of 100 μM), the “effect on colony numbers” value was “no effect”. The “effect on tube formation” value with HDMVE cells is reported as “no apparent effect”.

For the origin of these results see patent publication US7186695B2 (priority 2001, dated 2007).
